This test addresses T1, full-length ATR (Homo sapiens, UniProt Q13535).
T1 construct: in the presence of 5 nM full-length ATR
Description: ATR Inhibition Assay (radioactive-phosphate incorporation). The format is biochemical. The note with it: Ki(app); 5 nM full-length ATR, 10 μM ATP, 800 μM target peptide, 25° C. In outline: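 After a 10-min pre-incubation of compound with 5 nM enzyme at 25 °C, ATP was added to start the reaction (final 10 μM [γ-33P]ATP, 800 μM peptide; Tris/HCl pH 7.5, MgCl2, DTT), which ran 24 h. Incorporated 33P was captured on phosphocellulose filters, and Ki(app) was fitted by non-linear regression.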
T1 sequence (Q13535 whole entry): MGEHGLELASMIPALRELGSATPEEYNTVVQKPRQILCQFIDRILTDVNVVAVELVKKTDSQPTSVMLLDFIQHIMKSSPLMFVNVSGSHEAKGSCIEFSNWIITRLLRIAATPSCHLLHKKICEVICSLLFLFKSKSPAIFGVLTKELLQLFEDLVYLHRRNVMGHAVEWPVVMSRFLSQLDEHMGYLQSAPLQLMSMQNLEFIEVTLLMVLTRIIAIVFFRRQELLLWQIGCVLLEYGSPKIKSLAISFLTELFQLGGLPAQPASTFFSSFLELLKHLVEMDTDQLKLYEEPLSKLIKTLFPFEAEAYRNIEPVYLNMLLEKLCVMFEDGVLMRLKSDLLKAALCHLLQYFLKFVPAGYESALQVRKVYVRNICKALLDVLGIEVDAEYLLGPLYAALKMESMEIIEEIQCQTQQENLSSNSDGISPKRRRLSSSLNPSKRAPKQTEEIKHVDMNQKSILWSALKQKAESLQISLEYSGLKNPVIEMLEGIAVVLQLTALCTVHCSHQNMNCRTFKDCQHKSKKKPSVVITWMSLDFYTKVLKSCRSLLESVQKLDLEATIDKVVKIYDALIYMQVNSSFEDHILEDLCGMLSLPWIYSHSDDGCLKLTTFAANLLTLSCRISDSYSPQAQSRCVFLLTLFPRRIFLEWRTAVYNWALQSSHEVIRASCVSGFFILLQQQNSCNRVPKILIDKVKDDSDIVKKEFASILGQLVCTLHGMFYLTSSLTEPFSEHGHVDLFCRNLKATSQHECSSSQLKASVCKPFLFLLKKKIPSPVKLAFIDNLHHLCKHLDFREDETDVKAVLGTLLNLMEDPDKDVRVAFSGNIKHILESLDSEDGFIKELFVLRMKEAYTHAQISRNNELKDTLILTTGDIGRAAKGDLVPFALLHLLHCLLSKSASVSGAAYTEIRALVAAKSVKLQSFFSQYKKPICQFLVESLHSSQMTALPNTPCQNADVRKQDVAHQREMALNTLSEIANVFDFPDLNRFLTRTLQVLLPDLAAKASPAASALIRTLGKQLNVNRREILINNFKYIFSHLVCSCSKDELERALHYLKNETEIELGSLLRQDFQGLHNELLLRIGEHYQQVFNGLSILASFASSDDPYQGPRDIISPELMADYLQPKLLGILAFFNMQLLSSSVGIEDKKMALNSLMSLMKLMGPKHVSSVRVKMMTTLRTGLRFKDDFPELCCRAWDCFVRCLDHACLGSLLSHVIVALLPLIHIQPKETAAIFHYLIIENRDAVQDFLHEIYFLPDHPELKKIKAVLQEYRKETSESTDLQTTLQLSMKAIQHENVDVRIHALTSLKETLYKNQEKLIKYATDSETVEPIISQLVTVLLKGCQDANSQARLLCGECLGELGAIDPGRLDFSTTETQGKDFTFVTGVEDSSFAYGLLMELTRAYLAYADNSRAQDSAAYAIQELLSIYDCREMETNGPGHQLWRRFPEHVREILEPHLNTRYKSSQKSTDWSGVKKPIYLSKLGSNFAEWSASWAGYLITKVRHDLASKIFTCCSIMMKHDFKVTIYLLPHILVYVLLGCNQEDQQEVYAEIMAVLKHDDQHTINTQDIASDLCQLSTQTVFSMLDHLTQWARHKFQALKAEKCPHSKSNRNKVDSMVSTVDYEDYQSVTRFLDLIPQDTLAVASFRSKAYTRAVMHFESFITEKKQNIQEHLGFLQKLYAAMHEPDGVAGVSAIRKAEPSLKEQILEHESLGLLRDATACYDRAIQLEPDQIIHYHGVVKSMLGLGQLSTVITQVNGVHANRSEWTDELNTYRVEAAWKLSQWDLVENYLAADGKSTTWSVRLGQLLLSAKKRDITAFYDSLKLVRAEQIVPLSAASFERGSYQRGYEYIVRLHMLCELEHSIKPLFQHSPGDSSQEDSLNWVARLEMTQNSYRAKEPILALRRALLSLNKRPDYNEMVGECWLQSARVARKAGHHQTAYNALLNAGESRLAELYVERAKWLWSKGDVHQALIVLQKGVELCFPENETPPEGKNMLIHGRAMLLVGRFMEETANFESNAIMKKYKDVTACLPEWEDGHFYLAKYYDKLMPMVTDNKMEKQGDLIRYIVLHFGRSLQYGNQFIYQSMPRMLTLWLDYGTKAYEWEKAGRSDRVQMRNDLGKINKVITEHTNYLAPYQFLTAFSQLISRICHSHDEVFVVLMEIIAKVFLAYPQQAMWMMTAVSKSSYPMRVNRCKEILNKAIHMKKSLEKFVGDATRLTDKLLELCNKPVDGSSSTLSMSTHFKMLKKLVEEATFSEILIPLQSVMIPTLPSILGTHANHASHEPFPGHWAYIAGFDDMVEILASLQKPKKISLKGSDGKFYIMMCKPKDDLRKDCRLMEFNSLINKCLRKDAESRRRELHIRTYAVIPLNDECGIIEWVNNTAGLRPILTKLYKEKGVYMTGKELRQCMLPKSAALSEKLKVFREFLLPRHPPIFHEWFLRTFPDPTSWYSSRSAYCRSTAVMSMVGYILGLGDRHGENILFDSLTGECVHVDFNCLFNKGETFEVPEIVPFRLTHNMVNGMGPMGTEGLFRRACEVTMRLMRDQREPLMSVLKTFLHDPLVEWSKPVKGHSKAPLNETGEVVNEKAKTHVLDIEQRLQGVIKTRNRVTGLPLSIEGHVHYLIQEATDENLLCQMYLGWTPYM
On to `NCCCS(=O)(=O)N1CC=C(c2cnc(N)c(-c3nc4ccccc4[nH]3)n2)CC1` [Compound I-331, 5-(1-(3-aminopropylsulfonyl)-1,2,3,6-tetrahydropyridin-4-yl)-3-(1H-benzo[d]imidazol-2-yl)pyrazin-2-amine], for which the Ki is below 100 nM. With `CCS(=O)(=O)N1CC=C(c2cnc(N)c(-c3noc(-c4ccccc4)n3)n2)CC1` [Compound I-307, 5-(1-ethylsulfonyl-3,6-dihydro-2H-pyridin-4-yl)-3-(5-phenyl-1,2,4-oxadiazol-3-yl)pyrazin-2-amine], the Ki lay within 100 to 1000 nM. Consider `Nc1ncc(N2CCN(S(=O)(=O)c3ccccc3)CC2)nc1C(=O)Nc1ccccn1` [Compound I-207, 3-amino-6-(4-(phenylsulfonyl)piperazin-1-yl)-N-(pyridin-2-yl)pyrazine-2-carboxamide], for which the Ki lay within 100 to 1000 nM. As to `Nc1ncc(C2=CCN(C(=O)N3CCCNCC3)CC2)nc1-c1nc2ccccc2[nH]1` [Compound I-279, (4-(5-amino-6-(1H-benzo[d]imidazol-2-yl)pyrazin-2-yl)-5,6-dihydropyridin-1(2H)-yl)(1,4-diazepan-1-yl)methanone], the Ki was 100 to 1000 nM. `Nc1ncc(C2=CCN(C(=O)c3ccccc3)CC2)nc1-c1nnc(-c2ccccc2)o1` [Compound I-103, (4-(5-amino-6-(5-phenyl-1,3,4-oxadiazol-2-yl)pyrazin-2-yl)-5,6-dihydropyridin-1(2H)-yl)(phenyl)methanone]: the Ki is below 100 nM.

On to `CCS(=O)(=O)N1CCN(c2cnc(N)c(C(=O)Nc3ccccc3)n2)CC1` [Compound I-20, 3-amino-6-(4-(ethylsulfonyl)piperazin-1-yl)-N-phenylpyrazine-2-carboxamide], for which the Ki was in the range of 100 to 1000 nM. In the case of `COCCOC(=O)N1CCN(c2cnc(N)c(-c3nc4ccccc4[nH]3)n2)CC1` [Compound I-266, 2-methoxyethyl 4-(5-amino-6-(1H-benzo[d]imidazol-2-yl)pyrazin-2-yl)piperazine-1-carboxylate], the Ki is 1000 to 10000 nM. `Nc1ncc(C2=CCN(C(=O)N3CCNCC3)CC2)nc1-c1nc2ccccc2[nH]1` [Compound I-280, (4-(5-amino-6-(1H-benzo[d]imidazol-2-yl)pyrazin-2-yl)-5,6-dihydropyridin-1(2H)-yl)(piperazin-1-yl)methanone]: the Ki was in the range of 100 to 1000 nM.

On to `CCS(=O)(=O)N1CCN(c2cnc(N)c(-c3cc(-c4ccccc4)no3)n2)CC1` [Compound I-162, 5-(4-(ethylsulfonyl)piperazin-1-yl)-3-(3-phenylisoxazol-5-yl)pyrazin-2-amine], for which the Ki was 100 to 1000 nM.

`CC(=O)N1CCN(c2cnc(N)c(C(=O)Nc3ccccn3)n2)CC1` [Compound I-142, 3-amino-6-(4-ethanoylpiperazin-1-yl)-N-(pyridin-2-yl)pyrazine-2-carboxamide]: the Ki fell in the range of 1000 to 10000 nM. As for `COCCOC(=O)N1CCN(c2cnc(N)c(C(=O)Nc3ccccn3)n2)CC1` [Compound I-237, 2-methoxyethyl 4-(5-amino-6-(pyridin-2-ylcarbamoyl)pyrazin-2-yl)piperazine-1-carboxylate], the Ki fell in the range of 1000 to 10000 nM. Turning to `Nc1ncc(N2CCN(C(=O)c3ccccn3)CC2)nc1C(=O)Nc1ccccn1` [Compound I-148, 3-amino-N-(pyridin-2-yl)-6-(4-(pyridine-2-carbonyl)piperazin-1-yl)pyrazine-2-carboxamide], the Ki is 1000 to 10000 nM. For `CCS(=O)(=O)N1CC=C(c2cnc(N)c(-c3nc4cc(C)c(C)cc4[nH]3)n2)CC1` [Compound I-154, 3-(5,6-dimethyl-1H-benzo[d]imidazol-2-yl)-5-(1-(ethylsulfonyl)-1,2,3,6-tetrahydropyridin-4-yl)pyrazin-2-amine] the value was 100 to 1000 nM; for `Nc1ncc(N2CCN(C(=O)N3CCCC3)CC2)nc1-c1nnc(-c2ccccc2)o1` [Compound I-223, (4-(5-amino-6-(5-phenyl-1,3,4-oxadiazol-2-yl)pyrazin-2-yl)piperazin-1-yl)(pyrrolidin-1-yl)methanone], 100 to 1000 nM; for `Nc1ncc(N2CCN(C(=O)N3CCCCC3)CC2)nc1C(=O)Nc1ccccn1` [Compound I-247, 3-amino-6-(4-(piperidine-1-carbonyl)piperazin-1-yl)-N-(pyridin-2-yl)pyrazine-2-carboxamide], 1000 to 10000 nM. Take `CNCCC(=O)N1CC=C(c2cnc(N)c(-c3nc4ccccc4[nH]3)n2)CC1` [Compound I-346, 1-(4-(5-Amino-6-(1H-benzo[d]imidazol-2-yl)pyrazin-2-yl)-5,6-dihydropyridin-1(2H)-yl)-3-(methylamino)propan-1-one]: the Ki lay within 100 to 1000 nM. Regarding `Nc1ncc(N2CCN(S(=O)(=O)c3ccoc3)CC2)nc1-c1nnc(-c2ccccc2)o1` [Compound I-90, 5-(4-(furan-3-ylsulfonyl)piperazin-1-yl)-3-(5-phenyl-1,3,4-oxadiazol-2-yl)pyrazin-2-amine], the Ki was 100 to 1000 nM. For `CNCc1ccc(-c2nnc(-c3nc(N4CCC5(CCN(C)C5=O)CC4)cnc3N)o2)cc1` [Compound I-344, 8-[5-Amino-6-[5-[4-(methylaminomethyl)phenyl]-1,3,4-oxadiazol-2-yl]pyrazin-2-yl]-2-methyl-2,8-diazaspiro[4.5]decan-1-one] the value was below 100 nM; for `CC(=O)N[C@H]1CCN(c2cnc(N)c(-c3nc4ccc(C)cc4[nH]3)n2)C1` [Compound I-4, (S)-N-(1-(5-amino-6-(6-methyl-1H-benzo[d]imidazol-2-yl)pyrazin-2-yl)pyrrolidin-3-yl)ethanamide], 100 to 1000 nM; for `N#CCCN1CCN(c2cnc(N)c(-c3nnc(-c4ccccc4)o3)n2)CC1` [Compound I-298, 3-[4-[5-amino-6-(5-phenyl-1,3,4-oxadiazol-2-yl)pyrazin-2-yl]piperazin-1-yl]propanenitrile], 1000 to 10000 nM. For `CCS(=O)(=O)N1CC2CN(c3cnc(N)c(-c4nnc(-c5ccccc5)o4)n3)CC2C1` (stereo not drawn) [Compound I-305, 5-(2-ethylsulfonyl-1,3,3a,4,6,6a-hexahydropyrrolo[3,4-c]pyrrol-5-yl)-3-(5-phenyl-1,3,4-oxadiazol-2-yl)pyrazin-2-amine] the value was 100 to 1000 nM; for `CCOC(=O)N1CCN(c2cnc(N)c(-c3nc4ccc(C)cc4[nH]3)n2)CC1` [Compound I-32, ethyl 4-(5-amino-6-(6-methyl-1H-benzo[d]imidazol-2-yl)pyrazin-2-yl)piperazine-1-carboxylate], 1000 to 10000 nM; for `COCCOCC(=O)N1CC=C(c2cnc(N)c(-c3nnc(-c4ccccc4)o3)n2)CC1` [Compound I-135, 1-(4-(5-amino-6-(5-phenyl-1,3,4-oxadiazol-2-yl)pyrazin-2-yl)-5,6-dihydropyridin-1(2H)-yl)-2-(2-methoxyethoxy)ethanone], below 100 nM. For the molecule `CCS(=O)(=O)N1CCC2(CCN(c3cnc(N)c(-c4nnc(-c5ccc(CNC)cc5)o4)n3)C2)C1` (stereo not drawn) [Compound I-330, 5-(3-Ethylsulfonyl-3,7-diazaspiro[4.4]nonan-7-yl)-3-[5-[4-(methylaminomethyl)phenyl]-1,3,4-oxadiazol-2-yl]pyrazin-2-amine], the Ki fell in the range of 1000 to 10000 nM.

For the molecule `CCC(=O)NC1CCN(c2cnc(N)c(-c3nnc(-c4ccc(CNC)cc4)o3)n2)CC1` [Compound I-366, N-(1-(5-Amino-6-(5-(4-((methylamino)methyl)phenyl)-1,3,4-oxadiazol-2-yl)pyrazin-2-yl)piperidin-4-yl)propionamide], the Ki is 100 to 1000 nM. With `CN1CCN(C(=O)N2CC=C(c3cnc(N)c(-c4nc5ccccc5[nH]4)n3)CC2)CC1` [Compound I-161, (4-(5-amino-6-(1H-benzo[d]imidazol-2-yl)pyrazin-2-yl)-5,6-dihydropyridin-1(2H)-yl)(4-methylpiperazin-1-yl)methanone], the Ki was in the range of 100 to 1000 nM.

`Nc1ncc(N2CCN(S(=O)(=O)c3cccnc3)CC2)nc1C(=O)Nc1ccccn1` [Compound I-233, 3-amino-N-(pyridin-2-yl)-6-(4-(pyridin-3-ylsulfonyl)piperazin-1-yl)pyrazine-2-carboxamide]: the Ki fell in the range of 100 to 1000 nM. Regarding `CCS(=O)(=O)N1CC=C(c2cnc(N)c(-c3nnc(-c4ccc(CNC)cc4)o3)n2)CC1` [Compound I-339, 5-(1-Ethylsulfonyl-3,6-dihydro-2H-pyridin-4-yl)-3-[5-[4-(methylaminomethyl)phenyl]-1,3,4-oxadiazol-2-yl]pyrazin-2-amine], the Ki was in the range of 100 to 1000 nM. For `CCC(=O)N1CCN(c2cnc(N)c(-c3nnc(-c4ccc(CNC)cc4)o3)n2)[C@H](C)C1` [Compound I-359, (R)-1-(4-(5-Amino-6-(5-(4-((methylamino)methyl)phenyl)-1,3,4-oxadiazol-2-yl)pyrazin-2-yl)-3-methylpiperazin-1-yl)propan-1-one], the Ki fell in the range of 100 to 1000 nM. Turning to `CCS(=O)(=O)N1CC=C(c2cnc(N)c(C(=O)Nc3cc(C)nn3C)n2)CC1` [Compound I-168, 3-amino-N-(1,3-dimethyl-1H-pyrazol-5-yl)-6-(1-(ethylsulfonyl)-1,2,3,6-tetrahydropyridin-4-yl)pyrazine-2-carboxamide], the Ki was in the range of 100 to 1000 nM. As to `CC(C)C(=O)N1CC=C(c2cnc(N)c(-c3nnc(-c4ccccc4)o3)n2)CC1` [Compound I-192, 1-(4-(5-amino-6-(5-phenyl-1,3,4-oxadiazol-2-yl)pyrazin-2-yl)-5,6-dihydropyridin-1(2H)-yl)-2-methylpropan-1-one], the Ki was below 100 nM. For the molecule `Nc1ncc(N2CCN(C(=O)OCc3ccccc3)CC2)nc1C(=O)Nc1ccccn1` [Compound I-260, benzyl 4-(5-amino-6-(pyridin-2-ylcarbamoyl)pyrazin-2-yl)piperazine-1-carboxylate], the Ki fell in the range of 1000 to 10000 nM. With `Cc1ccc2nc(-c3nc(N4CCN(c5ncccc5C(F)(F)F)CC4)cnc3N)[nH]c2c1` [Compound I-52, 3-(6-methyl-1H-benzo[d]imidazol-2-yl)-5-(4-(3-(trifluoromethyl)pyridin-2-yl)piperazin-1-yl)pyrazin-2-amine], the Ki was 1000 to 10000 nM.

For the origin of these results see patent US8410112B2, “Compounds useful as inhibitors of ATR kinase” (Vertex Pharmaceuticals Incorporated, priority 2008, dated 2013).
